Results: patent publication US20090004726A1, “Inhibitor Tolerant Saccharomyces Cerevisiae Strain” (The United States of America, as represented by the …, priority 2007, published 2009)

What was measured:
[1] = tested on: Saccharomyces cerevisiae NRRL Y-12632; assay: Dose-dependent response of ethanologenic yeast to HMF (cell growth, OD600)
Experimental: A loopful of cells of each strain from the synthetic medium agar plate was transferred into a synthetic broth and incubated at 30° C. with agitation and maintained in the broth prior to inoculum preparation. Cells were harvested by centrifugation 8-15 hours after incubation and suspended in a fresh synthetic broth serving as the inoculum source. The initial OD at 620 nm of the inoculated medium for each culture was adjusted and recorded. Each strain was grown in a 15-ml test tube containing 3 ml of synthetic broth amended with inhibitory compounds in an incubator at 30° C. with agitation at 220 rpm under micro-oxic conditions. Cell growth was monitored by measuring optical absorbance at 620 nm using a spectrophotometer and samples were taken periodically.
For inhibitor application, cultures were supplemented with HMF at a series of final concentrations of 0, 10, 30, 60, and 120 mM, or combined inhibitors of furfural and HMF each at 12 mM, respectively. A non inhibitor treated culture served as a control. Cultures were monitored for cell growth at OD600 and samples were taken hourly for the first 16 hours and proper intervals afterward till the completion of the fermentation. Cell free supernatant was taken for metabolic profiling analysis using HPLC. […] Duplicated experiments were carried out for all treatments.

[2] = tested on: furfural reduction activity of Y-50049 whole cell extracts; assay: Whole cell lysate enzyme assay after inhibitor induction (absorbance at 340 nm); assay type: biochemical, Saccharomyces cerevisiae; settings: induction with 30 mM inhibitor for 3 h; 10 mM furfural substrate; 100 μM NADPH

SMILES: O=Cc1ccc(CO)o1 [HMF, 5-hydroxymethylfurfural]
- cell growth ([1]; HMF at 120 mM): no cell growth was observed
- cell growth ([1]; HMF at 10, 30 and 60 mM, compared with control): delayed
- lethal dose (cells completely repressed, no biological activity or HMF transformation till 128 hours) ([1]; synthetic medium, 30° C.): 120 mM
- induced furfural reduction activity coupled with cofactor NADPH [2]: ranked the least

SMILES: O=Cc1ccco1 [furfural]
- induced furfural reduction activity coupled with cofactor NADPH [2]: strongest activities
